Consider 17 compounds from ChEMBL document CHEMBL1687887, “Evolution of potent and stable placental-growth-factor-1-targeting CovX-bodies from phage display peptide discovery” (J Med Chem, 2011).

Test [1] deals with T1, Placenta growth factor (Homo sapiens, UniProt P49763).
T1 sequence (P49763 whole entry): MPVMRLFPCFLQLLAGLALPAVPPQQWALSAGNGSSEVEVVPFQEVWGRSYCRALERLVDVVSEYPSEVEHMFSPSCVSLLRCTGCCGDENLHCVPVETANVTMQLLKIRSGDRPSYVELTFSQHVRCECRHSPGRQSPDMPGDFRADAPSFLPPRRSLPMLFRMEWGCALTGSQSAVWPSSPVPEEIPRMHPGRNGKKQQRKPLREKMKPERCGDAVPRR
Put plainly: Inhibition of human PlGF-1-VEGFR-1 interaction by ELISA. In general terms: An ELISA detects its analyte on a solid surface through an enzyme-linked reagent.

For test [2], the target named is T1, Placenta growth factor. Put plainly: Binding affinity to human PlGF-1.

Numbered stars: 1 amine (or outer) side, 2 acyl side, 3 side chain; on linkers, the order of the positions; unused ones are H or OH. Bridge positions count the residues as written; N and C are the ends. Square brackets hold non-standard residues; d marks the D form. Peptide text beside a SMILES is read from it. * marks the point of attachment. X2 = NCCCC[C@H](N[*:1])C(=O)NC(=O)COCC(=O)[*:2]; X1 = O=C(COCC(=O)*)Nc1ccc(CCC(=O)N2CCC2=O)cc1; X3 = O=C(CCc1ccc(N*)cc1)N1CCC1=O; Aad = N[C@@H](CCCC(=O)O)C(=O)O

A word on the IC50: it is the concentration that inhibits the measured activity by half. Lower therefore signals higher potency. In test [1], `CSCC[C@H](NC(=O)[C@H](CCCCN)NC(=O)[C@@H]1CSSC[C@H](NC(=O)[C@@H](NC(=O)[C@H](CC(=O)O)NC(=O)[C@H](Cc2ccccc2)NC(C)=O)C(C)C)C(=O)N[C@@H](CCCCN)C(=O)N[C@@H](Cc2c[nH]c3ccccc23)C(=O)N[C@@H](C(C)C)C(=O)N[C@@H]([C@@H](C)O)C(=O)N[C@@H](CC(C)C)C(=O)N2CCC[C@H]2C(=O)N[C@@H](Cc2cnc[nH]2)C(=O)N1)C(=O)N[C@@H](CCCC(N)=O)C(N)=O` (Ac-FDVCKWVTLPHCKM[Aad](NH2)-NH2; disulfide 4-12) registered an IC50 of 1 µM. Still for that read-out and setting: the same measure for `CSCC[C@H](NC(=O)[C@H](Cc1ccccc1)NC(C)=O)C(=O)N[C@H](C(=O)N[C@H]1CSSC[C@@H](C(=O)N2CCC[C@H]2C(=O)N[C@@H](CCSC)C(=O)N[C@@H](CCC(N)=O)C(N)=O)NC(=O)[C@H](Cc2c[nH]c3ccccc23)NC(=O)[C@@H]2CCCN2C(=O)[C@H](CC(C)C)NC(=O)[C@H]([C@@H](C)O)NC(=O)[C@H](C(C)C)NC(=O)[C@H](Cc2ccc(O)cc2)NC(=O)[C@H](CC(N)=O)NC1=O)C(C)C` (Ac-FMVCNYVTLPWCPMQ-NH2; disulfide 4-12): 19 µM. `CC[C@H](C)[C@H](NC(=O)[C@H](C)NC(=O)[C@H](CC(C)C)NC(=O)[C@@H]1CSSC[C@H](NC(=O)[C@@H](NC(=O)[C@H](CC(=O)O)NC(=O)[C@H](CC(C)C)NC(C)=O)C(C)C)C(=O)N[C@@H](CC(C)C)C(=O)N[C@@H](Cc2c[nH]c3ccccc23)C(=O)N[C@@H](C(C)C)C(=O)N[C@@H](CO)C(=O)N[C@@H](CC(C)C)C(=O)N2CCC[C@H]2C(=O)N[C@@H](Cc2cnc[nH]2)C(=O)N1)C(N)=O` (Ac-LDVCLWVSLPHCLAI-NH2; disulfide 4-12): half-maximal inhibition in test [1] (IC50) was put at 100 µM. The compound `CSCC[C@H](NC(=O)[C@@H](NC(=O)[C@H](CCCN=C(N)N)NC(=O)[C@@H]1CSSC[C@H](NC(=O)[C@@H](NC(=O)[C@H](CC(=O)O)NC(=O)[C@H](Cc2ccccc2)NC(C)=O)C(C)C)C(=O)N[C@@H](CC(N)=O)C(=O)N[C@@H](Cc2c[nH]c3ccccc23)C(=O)N[C@@H](C(C)C)C(=O)NCC(=O)N[C@@H](CC(C)C)C(=O)N[C@@H](C)C(=O)N[C@@H](Cc2cnc[nH]2)C(=O)N1)C(C)C)C(N)=O` (Ac-FDVCNWVGLAHCRVM-NH2; disulfide 4-12) had an IC50 in test [1] of 5 µM. On the same count and under the same terms, the same measure for `CC[C@H](C)[C@H](NC(=O)[C@H](CC(=O)O)NC(=O)[C@H](Cc1ccc(O)cc1)NC(C)=O)C(=O)N[C@H]1CSSC[C@@H](C(=O)N[C@@H](CCCCN)C(=O)N[C@@H](C)C(=O)N[C@H](C(N)=O)C(C)C)NC(=O)[C@H](Cc2cnc[nH]2)NC(=O)[C@@H]2CCCN2C(=O)[C@H](CC(C)C)NC(=O)[C@H](CCCNC(=N)N)NC(=O)[C@H]([C@@H](C)CC)NC(=O)[C@H](Cc2ccc(O)cc2)NC(=O)[C@H](CCCCN)NC1=O` (Ac-YDICKYIRLPHCKAV-NH2; disulfide 4-12): 9 µM. Same read-out and setting: the same measure for `CSCC[C@H](NC(=O)[C@H](CCCCN)NC(=O)[C@@H]1CSSC[C@H](NC(=O)[C@@H](NC(=O)[C@H](CC(=O)O)NC(=O)[C@H](Cc2ccccc2)NC(C)=O)C(C)C)C(=O)N[C@@H](CC(N)=O)C(=O)N[C@@H](Cc2c[nH]c3ccccc23)C(=O)N[C@@H](C(C)C)C(=O)N[C@@H]([C@@H](C)O)C(=O)N[C@@H](CC(C)C)C(=O)N2CCC[C@H]2C(=O)N[C@@H](Cc2cnc[nH]2)C(=O)N1)C(=O)N[C@@H](CCCC(N)=O)C(N)=O` (Ac-FDVCNWVTLPHCKM[Aad](NH2)-NH2; disulfide 4-12): 1 µM. By Kd is commonly meant the equilibrium constant for the complex coming apart. On to `CSCC[C@H](NC(=O)[C@@H](NC(=O)[C@H](CCCCNC(C)=O)NC(=O)[C@@H]1CSSC[C@H](NC(=O)[C@@H](NC(=O)[C@H](CC(=O)O)NC(=O)[C@H](CCCCNC(=O)COCC(=O)Nc2ccc(CCC(=O)N3CCC3=O)cc2)NC(C)=O)C(C)C)C(=O)N[C@@H](CC(N)=O)C(=O)N[C@@H](Cc2c[nH]c3ccccc23)C(=O)N[C@@H](C(C)C)C(=O)N[C@@H]([C@@H](C)O)C(=O)N[C@@H](CC(C)C)C(=O)N2CCC[C@H]2C(=O)N[C@@H](Cc2cnc[nH]2)C(=O)N1)C(C)C)C(N)=O` (Ac-K(X1)DVCNWVTLPHCK(Ac)VM-NH2; disulfide 4-12), for which, in test [2] (read-out: Kd), the Kd is above 1 µM.

Compound `CSCC[C@H](NC(=O)[C@@H](NC(=O)[C@H](CCCCN)NC(=O)[C@@H]1CSSC[C@H](NC(=O)[C@@H](NC(=O)[C@H](CC(=O)O)NC(=O)[C@H](Cc2ccccc2)NC(C)=O)C(C)C)C(=O)N[C@@H](CC(N)=O)C(=O)N[C@@H](Cc2c[nH]c3ccccc23)C(=O)N[C@@H](C(C)C)C(=O)N[C@@H]([C@@H](C)O)C(=O)N[C@@H](CC(C)C)C(=O)N2CCC[C@H]2C(=O)N[C@@H](Cc2cnc[nH]2)C(=O)N1)C(C)C)C(N)=O` (Ac-FDVCNWVTLPHCKVM-NH2; disulfide 4-12) had an IC50 in test [1] of 1 µM.

In the case of `CC[C@H](C)[C@H](NC(=O)[C@@H]1CSSC[C@H](NC(=O)[C@@H](NC(=O)[C@H](CCC(N)=O)NC(=O)[C@H](Cc2c[nH]c3ccccc23)NC(C)=O)[C@@H](C)CC)C(=O)N[C@@H](CC(=O)O)C(=O)N[C@@H]([C@@H](C)CC)C(=O)N[C@@H](CC(C)C)C(=O)N[C@@H]([C@@H](C)O)C(=O)N[C@@H](CC(C)C)C(=O)N2CCC[C@H]2C(=O)N[C@@H](Cc2cnc[nH]2)C(=O)N1)C(=O)N[C@@H](Cc1ccccc1)C(=O)N[C@@H](CC(N)=O)C(N)=O` (Ac-WQICDILTLPHCIFN-NH2; disulfide 4-12), inhibition in test [1] was half-maximal at 100 µM (IC50). For `CC(=O)NCCCC[C@H](NC(=O)[C@@H]1CSSC[C@H](NC(=O)[C@@H](NC(=O)[C@H](CC(=O)O)NC(=O)[C@H](Cc2ccccc2)NC(C)=O)C(C)C)C(=O)N[C@@H](CC(N)=O)C(=O)N[C@@H](Cc2c[nH]c3ccccc23)C(=O)N[C@@H](C(C)C)C(=O)N[C@@H]([C@@H](C)O)C(=O)N[C@@H](CC(C)C)C(=O)N2CCC[C@H]2C(=O)N[C@@H](Cc2cnc[nH]2)C(=O)N1)C(=O)N[C@H](C(=O)N[C@@H](CCCCN)C(=O)NC(=O)COCC(=O)Nc1ccc(CCC(=O)N2CCC2=O)cc1)C(C)C` (Ac-FDVCNWVTLPHCK(Ac)V[X2]-X3; disulfide 4-12), the Kd in test [2] (read-out: Kd) stood at 0.005 µM. Regarding `CSCC[C@H](NC(=O)[C@@H](NC(=O)[C@H](CCCNC(=N)N)NC(=O)[C@@H]1CSSC[C@H](NC(=O)[C@@H](NC(=O)[C@H](CC(=O)O)NC(=O)[C@H](Cc2ccccc2)NC(C)=O)C(C)C)C(=O)N[C@@H](CC(N)=O)C(=O)N[C@@H](Cc2c[nH]c3ccccc23)C(=O)N[C@@H](C(C)C)C(=O)NCC(=O)N[C@@H](CC(C)C)C(=O)N2CCC[C@H]2C(=O)N[C@@H](Cc2cnc[nH]2)C(=O)N1)C(C)C)C(N)=O` (Ac-FDVCNWVGLPHCRVM-NH2; disulfide 4-12), the IC50 in test [1] came out at 9 µM. With `CSCC[C@H](NC(=O)[C@@H](NC(=O)[C@H](CCCCNC(C)=O)NC(=O)[C@@H]1CSSC[C@H](NC(=O)[C@@H](NC(=O)[C@H](CCCCNC(=O)COCC(=O)Nc2ccc(CCC(=O)N3CCC3=O)cc2)NC(=O)[C@H](Cc2ccccc2)NC(C)=O)C(C)C)C(=O)N[C@@H](CC(N)=O)C(=O)N[C@@H](Cc2c[nH]c3ccccc23)C(=O)N[C@@H](C(C)C)C(=O)N[C@@H]([C@@H](C)O)C(=O)N[C@@H](CC(C)C)C(=O)N2CCC[C@H]2C(=O)N[C@@H](Cc2cnc[nH]2)C(=O)N1)C(C)C)C(N)=O` (Ac-FK(X1)VCNWVTLPHCK(Ac)VM-NH2; disulfide 4-12), the equilibrium dissociation constant (Kd) in test [2] (read-out: Kd) is above 1 µM. As to `CSCC[C@H](NC(=O)[C@@H](NC(=O)[C@H](CCCCNC(C)=O)NC(=O)[C@@H]1CSSC[C@H](NC(=O)[C@@H](NC(=O)[C@H](CC(=O)O)NC(=O)[C@H](Cc2ccccc2)NC(=O)COCC(=O)Nc2ccc(CCC(=O)N3CCC3=O)cc2)C(C)C)C(=O)N[C@@H](CC(N)=O)C(=O)N[C@@H](Cc2c[nH]c3ccccc23)C(=O)N[C@@H](C(C)C)C(=O)N[C@@H]([C@@H](C)O)C(=O)N[C@@H](CC(C)C)C(=O)N2CCC[C@H]2C(=O)N[C@@H](Cc2cnc[nH]2)C(=O)N1)C(C)C)C(N)=O` (X1-FDVCNWVTLPHCK(Ac)VM-NH2; disulfide 4-12), in test [2] (read-out: Kd), the Kd was above 1 µM. Compound `CSCC[C@H](NC(=O)[C@@H](NC(=O)[C@H](CCCCN)NC(=O)[C@@H]1CSSC[C@H](NC(=O)[C@@H](NC(=O)[C@H](CC(=O)O)NC(=O)[C@H](Cc2ccccc2)NC(C)=O)C(C)C)C(=O)N[C@@H](CCCCN)C(=O)N[C@@H](Cc2c[nH]c3ccccc23)C(=O)N[C@@H](C(C)C)C(=O)NCC(=O)N[C@@H](CC(C)C)C(=O)N2CCC[C@H]2C(=O)N[C@@H](Cc2cnc[nH]2)C(=O)N1)C(C)C)C(N)=O` (Ac-FDVCKWVGLPHCKVM-NH2; disulfide 4-12) came in with an IC50 in test [1] of 6 µM. Turning to `CC[C@H](C)[C@H](NC(=O)[C@H](CC(=O)O)NC(=O)[C@H](Cc1ccc(O)cc1)NC(C)=O)C(=O)N[C@H]1CSSC[C@@H](C(=O)N[C@@H](Cc2ccccc2)C(=O)N[C@@H](C)C(=O)N[C@H](C(N)=O)C(C)C)NC(=O)[C@H](Cc2cnc[nH]2)NC(=O)[C@@H]2CCCN2C(=O)[C@H](CC(C)C)NC(=O)[C@H](CCCNC(=N)N)NC(=O)[C@H]([C@@H](C)CC)NC(=O)[C@H](Cc2ccc(O)cc2)NC(=O)[C@H](Cc2cnc[nH]2)NC1=O` (Ac-YDICHYIRLPHCFAV-NH2; disulfide 4-12), the IC50 in test [1] came to 100 µM.

With `N=C(N)NCCC[C@@H]1NC(=O)[C@H](CCCCNC(=O)COCC(=O)Nc2ccc(CCC(=O)N3CCC3=O)cc2)NC(=O)[C@@H](Cc2ccccc2)NC(=O)[C@H](CC(=O)O)NC(=O)CNC1=O`, the Kd entry in test [2] is reported as “Not Active”.

For the compound `CC(=O)NCCCC[C@@H]1NC(=O)[C@@H](NC(=O)[C@@H](NC(=O)[C@H](CC(=O)O)NC(=O)[C@H](Cc2ccccc2)NC(C)=O)C(C)C)CSSC[C@@H](C(=O)N[C@@H](CCCCNC(C)=O)C(=O)N[C@H](C(=O)N[C@@H](CCCCN)C(=O)NC(=O)COCC(=O)Nc2ccc(CCC(=O)N3CCC3=O)cc2)C(C)C)NC(=O)[C@H](Cc2cnc[nH]2)NC(=O)[C@@H]2CCCN2C(=O)[C@H](CC(C)C)NC(=O)[C@H]([C@@H](C)O)NC(=O)[C@H](C(C)C)NC(=O)[C@H](Cc2c[nH]c3ccccc23)NC1=O` (Ac-FDVCK(Ac)WVTLPHCK(Ac)V[X2]-X3; disulfide 4-12), the dissociation constant (Kd) in test [2] (read-out: Kd) was determined as 0.008 µM.
